Experimental data published in ChEMBL document CHEMBL1201862, “PubChem BioAssay data set” (2004).
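Five concentrations, 48 hours, 96-well plates. GI50 is the concentration that inhibits growth by half.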 Activity calls are given as the source filed them. Cut-off read from the data, not from the text of the source: active = GI50 up to about 1.1 µM and inactive = higher.

What was measured:
Assay in all cases: DTP human tumour cell line panel, 48 h
Hs-578T = test system: Hs-578T
PC-3 = test system: PC-3
HOP-92 = test system: HOP-92
EKVX = test system: EKVX
NCI-H226 = test system: NCI-H226
786-0 = test system: 786-0
UO-31 = test system: UO-31
HL-60 = test system: HL-60
IGROV-1 = test system: IGROV-1
SR = test system: SR
HCC 2998 = test system: HCC 2998
OVCAR-3 = test system: OVCAR-3
RXF 393 = test system: RXF 393
Malme-3M = test system: Malme-3M
NCI-H23 = test system: NCI-H23
SK-MEL-2 = test system: SK-MEL-2
TK-10 = test system: TK-10
HOP-62 = test system: HOP-62
LOX IMVI = test system: LOX IMVI

Structure (SMILES) | GI50 (Hs-578T) | GI50 (PC-3) | GI50 (HOP-92) | GI50 (EKVX) | GI50 (NCI-H226) | GI50 (786-0) | GI50 (UO-31) | GI50 (HL-60) | GI50 (IGROV-1) | GI50 (SR) | GI50 (HCC 2998) | GI50 (OVCAR-3) | GI50 (RXF 393) | GI50 (Malme-3M) | GI50 (NCI-H23) | GI50 (SK-MEL-2) | GI50 (TK-10) | GI50 (HOP-62) | GI50 (LOX IMVI)
CN1CCc2ccccc2C1Cc1ccccc1NC(=O)c1sc2ccccc2c1Cl (configuration not stated) | > 100 µM (inactive) | > 100 µM (inactive) | > 100 µM (inactive) | > 100 µM (inactive) | > 100 µM (inactive) | > 100 µM (inactive) | > 100 µM (inactive) | 42.3 µM (inactive) | > 100 µM (inactive) | > 100 µM (inactive) | > 100 µM (inactive) | > 100 µM (inactive) | > 100 µM (inactive) | > 100 µM (inactive) | > 100 µM (inactive) | > 100 µM (inactive) | > 100 µM (inactive) | > 100 µM (inactive) | –
CN(C)Cc1c[nH]c2ncnc(O)c12 | > 100 µM (inactive) | 56.2 µM (inactive) | 38.9 µM (inactive) | 98.2 µM (inactive) | > 100 µM (inactive) | 23.2 µM (inactive) | 62.2 µM (inactive) | 19.7 µM (inactive) | 35 µM (inactive) | 27.1 µM (inactive) | – | > 100 µM (inactive) | 18.6 µM (inactive) | 77.1 µM (inactive) | 32.2 µM (inactive) | 43.6 µM (inactive) | 37.7 µM (inactive) | > 100 µM (inactive) | 19 µM (inactive)
CCOn1cc(C[C@@]2(O)C(=O)OC3[C@@H](O)CO[C@@]32O)c2ccccc21 (some centres not stated) | > 100 µM (inactive) | > 100 µM (inactive) | > 100 µM (inactive) | > 100 µM (inactive) | > 100 µM (inactive) | 94.4 µM (inactive) | > 100 µM (inactive) | > 100 µM (inactive) | > 100 µM (inactive) | > 100 µM (inactive) | – | > 100 µM (inactive) | > 100 µM (inactive) | > 100 µM (inactive) | > 100 µM (inactive) | > 100 µM (inactive) | > 100 µM (inactive) | > 100 µM (inactive) | > 100 µM (inactive)
Cc1c(/C=N/NC(=S)Nc2ccc(Cl)cc2)c(=O)n(-c2ccccc2)n1C | 18.3 µM (inactive) | > 52.1 µM (inactive) | – | 22.6 µM (inactive) | 18.7 µM (inactive) | 16.3 µM (inactive) | 32.1 µM (inactive) | > 100 µM (inactive) | 16 µM (inactive) | 4.93 µM (inactive) | > 100 µM (inactive) | > 42 µM (inactive) | 14.8 µM (inactive) | > 34.7 µM (inactive) | 24.8 µM (inactive) | 21.6 µM (inactive) | 23.6 µM (inactive) | 14.3 µM (inactive) | 32.6 µM (inactive)
O=C1CC2C=CC(O)C(C1)C2 (configuration not stated) | 21 µM (inactive) | > 100 µM (inactive) | – | – | 37.4 µM (inactive) | > 100 µM (inactive) | > 100 µM (inactive) | > 100 µM (inactive) | > 100 µM (inactive) | < 0.01 µM (active) | > 100 µM (inactive) | > 100 µM (inactive) | 3.49 µM (inactive) | > 100 µM (inactive) | > 100 µM (inactive) | > 100 µM (inactive) | > 100 µM (inactive) | > 100 µM (inactive) | > 100 µM (inactive)
C=C1CC2(CCOc3ccc(Cl)cc32)OC1=O (configuration not stated) | 0.979 µM (active) | 1.95 µM (inactive) | 3.48 µM (inactive) | 3.42 µM (inactive) | 2.81 µM (inactive) | 2.15 µM (inactive) | 2.83 µM (inactive) | 1.93 µM (inactive) | 8.57 µM (inactive) | 2.37 µM (inactive) | 22.5 µM (inactive) | 1.39 µM (inactive) | 2.23 µM (inactive) | – | 5.22 µM (inactive) | 1.86 µM (inactive) | 5.77 µM (inactive) | 5.35 µM (inactive) | 2.44 µM (inactive)
Cn1c(=O)c2sc3cc4c(cc3c2c2ccccc21)sc1c(=O)n(C)c2ccccc2c14 | 43.4 µM (inactive) | > 100 µM (inactive) | 23.9 µM (inactive) | > 100 µM (inactive) | > 100 µM (inactive) | 31.8 µM (inactive) | 74.8 µM (inactive) | > 100 µM (inactive) | 65.9 µM (inactive) | 25.8 µM (inactive) | > 100 µM (inactive) | > 100 µM (inactive) | 15.9 µM (inactive) | 81.7 µM (inactive) | 45.7 µM (inactive) | > 100 µM (inactive) | > 100 µM (inactive) | 19.9 µM (inactive) | –
C1=N\c2ccc(cc2)/N=C\c2ccc(cc2)OCc2cccc(n2)COc2ccc/1cc2 | > 100 µM (inactive) | > 100 µM (inactive) | > 100 µM (inactive) | > 100 µM (inactive) | > 100 µM (inactive) | > 100 µM (inactive) | > 100 µM (inactive) | > 100 µM (inactive) | > 100 µM (inactive) | > 100 µM (inactive) | – | > 100 µM (inactive) | > 100 µM (inactive) | > 100 µM (inactive) | > 100 µM (inactive) | > 100 µM (inactive) | – | > 100 µM (inactive) | –
CCc1c[n+]([O-])c(C)cc1[N+](=O)[O-] | > 100 µM (inactive) | > 100 µM (inactive) | 35.8 µM (inactive) | 29.6 µM (inactive) | – | 97.1 µM (inactive) | > 100 µM (inactive) | > 100 µM (inactive) | > 100 µM (inactive) | 33.6 µM (inactive) | 24.3 µM (inactive) | > 100 µM (inactive) | 22.4 µM (inactive) | 40.1 µM (inactive) | 74.1 µM (inactive) | 21 µM (inactive) | 35.2 µM (inactive) | > 100 µM (inactive) | > 100 µM (inactive)
C/C=C/[C@H]1O[C@@](O)([C@@H](C)[C@H](O)[C@H](C)[C@H]2OC(=O)/C(OC)=C/C(C)=C/[C@@H](C)[C@@H](O)[C@@H](CC)[C@@H](O)[C@H](C)C/C(C)=C/C=C/[C@@H]2OC)C[C@H](OC2CC(O)C(OC(N)=O)C(C)O2)[C@@H]1C (some centres not stated) | 12.4 µM (inactive) | < 0.01 µM (active) | – | 0.0719 µM (active) | 0.0336 µM (active) | 0.0183 µM (active) | 0.0479 µM (active) | < 0.01 µM (active) | 0.0458 µM (active) | < 0.01 µM (active) | 0.0787 µM (active) | < 0.0181 µM (active) | 8.87 µM (inactive) | 0.122 µM (active) | 7.13 µM (inactive) | 0.0195 µM (active) | 17.3 µM (inactive) | < 0.0249 µM (active) | < 0.01 µM (active)
C[C@H](NC(=O)c1ccc(CNC(=O)/C=C/c2cccc(Oc3ccccc3)c2)cc1)c1ccccc1 | 49.9 µM (inactive) | > 100 µM (inactive) | > 100 µM (inactive) | > 100 µM (inactive) | 32.7 µM (inactive) | 36.5 µM (inactive) | 46.1 µM (inactive) | – | > 100 µM (inactive) | 26.8 µM (inactive) | > 100 µM (inactive) | > 100 µM (inactive) | 26.7 µM (inactive) | > 100 µM (inactive) | > 100 µM (inactive) | > 100 µM (inactive) | 61.4 µM (inactive) | 36.9 µM (inactive) | > 100 µM (inactive)
CCCCCCCCCCCCCCNC(=O)CCC(NC(=O)c1ccc(N(C)Cc2cnc3nc(N)nc(N)c3n2)cc1)C(=O)NCCCCCCCCCCCCCC (configuration not stated) | 8.39 µM (inactive) | 0.665 µM (active) | 14.8 µM (inactive) | 23.9 µM (inactive) | > 52.1 µM (inactive) | 1.28 µM (inactive) | 13.8 µM (inactive) | 0.355 µM (active) | 7.14 µM (inactive) | 0.139 µM (active) | 6.01 µM (inactive) | 13.4 µM (inactive) | 11.6 µM (inactive) | – | 3.8 µM (inactive) | 31 µM (inactive) | > 39.1 µM (inactive) | 9.29 µM (inactive) | 0.437 µM (active)
Cc1c(CCCl)c(=O)n2c([nH]c3ccccc32)c1C#N | 3.22 µM (inactive) | 1.45 µM (inactive) | 1.5 µM (inactive) | 1.84 µM (inactive) | 2.02 µM (inactive) | 1.51 µM (inactive) | 1.91 µM (inactive) | 1.55 µM (inactive) | 1.77 µM (inactive) | 0.527 µM (active) | – | 1.73 µM (inactive) | 1.76 µM (inactive) | 0.678 µM (active) | 1.53 µM (inactive) | 2.79 µM (inactive) | 2.54 µM (inactive) | 1.82 µM (inactive) | 0.619 µM (active)
CCCCCCCCCCCCCCCCS(=O)(=O)c1ccc(NN)cc1 | 7.96 µM (inactive) | 2.83 µM (inactive) | 7.1 µM (inactive) | > 10 µM (inactive) | – | > 10 µM (inactive) | – | 1.5 µM (inactive) | > 10 µM (inactive) | 2.77 µM (inactive) | > 10 µM (inactive) | 8.81 µM (inactive) | > 10 µM (inactive) | > 10 µM (inactive) | 4.88 µM (inactive) | > 10 µM (inactive) | > 10 µM (inactive) | > 10 µM (inactive) | 4.29 µM (inactive)
CC1=C/C(=N\OCC(=O)O)CC(c2ccc(C(C)C)cc2)C1 (configuration not stated) | > 100 µM (inactive) | 38.5 µM (inactive) | 29.5 µM (inactive) | > 100 µM (inactive) | – | 65.8 µM (inactive) | – | 26.5 µM (inactive) | > 100 µM (inactive) | 28.1 µM (inactive) | – | – | > 100 µM (inactive) | 63.8 µM (inactive) | – | 99.1 µM (inactive) | – | – | –
CN(C)/C=N/CCN1CCOCC1 | > 100 µM (inactive) | > 100 µM (inactive) | > 100 µM (inactive) | > 100 µM (inactive) | > 100 µM (inactive) | > 100 µM (inactive) | > 100 µM (inactive) | > 100 µM (inactive) | > 100 µM (inactive) | > 100 µM (inactive) | – | > 100 µM (inactive) | > 100 µM (inactive) | > 100 µM (inactive) | > 100 µM (inactive) | > 100 µM (inactive) | > 100 µM (inactive) | > 100 µM (inactive) | > 100 µM (inactive)
